Assay results as given in ChEMBL document CHEMBL1201862, “PubChem BioAssay data set” (2004).
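Test compounds were applied to cells in 96-well plates for 48 hours at 5 doses. GI50 marks 50% less growth.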 Active and inactive are the calls of the source. Cut-off read from the data, not from the text of the source: active = GI50 up to about 1.1 µM and inactive = higher.

Experiments:
Assay in all cases: inhibition of tumour cell growth, NCI panel, 48 h
MDA-N = tested on: MDA-N
SF-539 = tested on: SF-539
COLO 205 = tested on: COLO 205
HCT-116 = tested on: HCT-116
A549 = tested on: A549
SNB-75 = tested on: SNB-75
M14 = tested on: M14
A498 = tested on: A498
OVCAR-4 = tested on: OVCAR-4
IGROV-1 = tested on: IGROV-1
RXF 393 = tested on: RXF 393
EKVX = tested on: EKVX
SF-268 = tested on: SF-268
MDA-MB-435 = tested on: MDA-MB-435
NCI-H226 = tested on: NCI-H226
CAKI-1 = tested on: CAKI-1
DU-145 = tested on: DU-145
OVCAR-3 = tested on: OVCAR-3
HOP-92 = tested on: HOP-92
HT-29 = tested on: HT-29
HCT-15 = tested on: HCT-15
MDA-MB-231 = tested on: MDA-MB-231
TK-10 = tested on: TK-10
SK-MEL-5 = tested on: SK-MEL-5
PC-3 = tested on: PC-3
NCI/ADR-RES = tested on: NCI/ADR-RES
U-251 = tested on: U-251
SK-MEL-28 = tested on: SK-MEL-28
SNB-19 = tested on: SNB-19
OVCAR-5 = tested on: OVCAR-5
NCI-H23 = tested on: NCI-H23
UO-31 = tested on: UO-31
SF-295 = tested on: SF-295
OVCAR-8 = tested on: OVCAR-8
SW-620 = tested on: SW-620
SN12C = tested on: SN12C
KM12 = tested on: KM12
ACHN = tested on: ACHN
UACC-257 = tested on: UACC-257
RPMI-8226 = tested on: RPMI-8226
SK-MEL-2 = tested on: SK-MEL-2
786-0 = tested on: 786-0
LOX IMVI = tested on: LOX IMVI
SK-OV-3 = tested on: SK-OV-3
MOLT-4 = tested on: MOLT-4
NCI-H522 = tested on: NCI-H522
SR = tested on: SR
UACC-62 = tested on: UACC-62
CCRF-CEM = tested on: CCRF-CEM
MCF7 = tested on: MCF7
HCC 2998 = tested on: HCC 2998
K562 = tested on: K562
NCI-H460 = tested on: NCI-H460
Hs-578T = tested on: Hs-578T

## COc1cc2c(cc1OC)C1C[C@]3(CCN1CC2)C(=O)N(c1ccccc1)C(=O)N3C(C)=O (some centres undefined)
MDA-N
  GI50: > 200 µM (inactive)
SF-539
  GI50: > 200 µM (inactive)
COLO 205
  GI50: > 200 µM (inactive)
HCT-116
  GI50: > 200 µM (inactive)
A549
  GI50: > 200 µM (inactive)
SNB-75
  GI50: > 200 µM (inactive)
M14
  GI50: > 200 µM (inactive)
A498
  GI50: > 200 µM (inactive)
OVCAR-4
  GI50: > 200 µM (inactive)
IGROV-1
  GI50: > 200 µM (inactive)
RXF 393
  GI50: > 200 µM (inactive)
EKVX
  GI50: > 200 µM (inactive)
SF-268
  GI50: > 200 µM (inactive)
MDA-MB-435
  GI50: > 200 µM (inactive)
NCI-H226
  GI50: > 200 µM (inactive)
CAKI-1
  GI50: > 200 µM (inactive)
DU-145
  GI50: > 200 µM (inactive)
OVCAR-3
  GI50: > 200 µM (inactive)
HOP-92
  GI50: > 200 µM (inactive)
HT-29
  GI50: > 200 µM (inactive)
HCT-15
  GI50: > 200 µM
MDA-MB-231
  GI50: > 200 µM (inactive)
TK-10
  GI50: > 200 µM (inactive)
SK-MEL-5
  GI50: > 200 µM (inactive)
PC-3
  GI50: > 200 µM (inactive)
NCI/ADR-RES
  GI50: > 200 µM (inactive)
U-251
  GI50: > 200 µM (inactive)
SK-MEL-28
  GI50: > 200 µM (inactive)
SNB-19
  GI50: > 200 µM (inactive)
OVCAR-5
  GI50: > 200 µM (inactive)
NCI-H23
  GI50: > 200 µM (inactive)
UO-31
  GI50: > 200 µM (inactive)
SF-295
  GI50: > 200 µM (inactive)
OVCAR-8
  GI50: > 200 µM (inactive)
SW-620
  GI50: > 200 µM (inactive)
SN12C
  GI50: > 200 µM (inactive)
KM12
  GI50: > 200 µM (inactive)
ACHN
  GI50: > 200 µM (inactive)

## O=C(NC(=S)NC(=O)c1cc(O)c(O)c(O)c1)c1cc(O)c(O)c(O)c1
MDA-N
  GI50: 2.65 µM (inactive)
UACC-257
  GI50: 22.3 µM (inactive)
SF-539
  GI50: 30.8 µM (inactive)
RPMI-8226
  GI50: 48.3 µM (inactive)
SK-MEL-2
  GI50: 20.1 µM (inactive)
COLO 205
  GI50: 22.6 µM (inactive)
HCT-116
  GI50: 20.4 µM (inactive)
A549
  GI50: 37.1 µM (inactive)
786-0
  GI50: 20 µM (inactive)
LOX IMVI
  GI50: 12.8 µM (inactive)
M14
  GI50: 32.1 µM (inactive)
SK-OV-3
  GI50: 23.2 µM (inactive)
A498
  GI50: > 100 µM (inactive)
OVCAR-4
  GI50: 20.4 µM (inactive)
RXF 393
  GI50: 18 µM (inactive)
SF-268
  GI50: 31.1 µM (inactive)
MDA-MB-435
  GI50: 7.93 µM (inactive)
NCI-H226
  GI50: 39.1 µM (inactive)
MOLT-4
  GI50: > 10 µM (inactive)
NCI-H522
  GI50: 22.7 µM (inactive)
CAKI-1
  GI50: 21.1 µM (inactive)
SR
  GI50: > 100 µM (inactive)
UACC-62
  GI50: 23.7 µM (inactive)
DU-145
  GI50: 25.5 µM (inactive)
HOP-92
  GI50: 32.7 µM (inactive)
HT-29
  GI50: 25.9 µM (inactive)
HCT-15
  GI50: 23.9 µM
MDA-MB-231
  GI50: 28.8 µM (inactive)
TK-10
  GI50: 28.4 µM (inactive)
SK-MEL-5
  GI50: 24.5 µM (inactive)
PC-3
  GI50: 19.7 µM (inactive)
NCI/ADR-RES
  GI50: 23.4 µM (inactive)
U-251
  GI50: 27 µM (inactive)
SK-MEL-28
  GI50: 27.8 µM (inactive)
CCRF-CEM
  GI50: 4.41 µM (inactive)
MCF7
  GI50: 38.7 µM (inactive)
SNB-19
  GI50: 24.2 µM (inactive)
OVCAR-5
  GI50: 27 µM (inactive)
HCC 2998
  GI50: 31 µM (inactive)
K562
  GI50: 8.34 µM (inactive)
NCI-H23
  GI50: 23.7 µM (inactive)
UO-31
  GI50: 22.4 µM (inactive)
SF-295
  GI50: 17.1 µM (inactive)
OVCAR-8
  GI50: 20.7 µM (inactive)
SW-620
  GI50: 27.7 µM (inactive)
SN12C
  GI50: 24.7 µM (inactive)
KM12
  GI50: 24.5 µM (inactive)
ACHN
  GI50: 23 µM (inactive)
NCI-H460
  GI50: 26.5 µM (inactive)

## O=C(O)CCCc1ccccc1 [SODIUM PHENYLBUTYRATE]
SF-539
  GI50: 177 µM (inactive)
Hs-578T
  GI50: 182 µM (inactive)
A498
  GI50: 144 µM (inactive)
RXF 393
  GI50: 193 µM (inactive)
MOLT-4
  GI50: 117 µM (inactive)
NCI-H522
  GI50: 110 µM (inactive)
UACC-62
  GI50: 172 µM (inactive)
HOP-92
  GI50: 80.2 µM (inactive)
HCT-15
  GI50: 137 µM
SK-MEL-5
  GI50: 162 µM (inactive)
CCRF-CEM
  GI50: 63.5 µM (inactive)
HCC 2998
  GI50: 144 µM (inactive)
K562
  GI50: 102 µM (inactive)
UO-31
  GI50: 189 µM (inactive)
SN12C
  GI50: 102 µM (inactive)
KM12
  GI50: 126 µM (inactive)
NCI-H460
  GI50: 118 µM (inactive)
